# Columns and labels:
# Test in all cases: relative viability (nuclei count vs DMSO), 5 days (fraction); higher = more cells survive
# [1] = compound: COc1cc(Nc2c(C#N)cnc3cc(OCCCN4CCN(C)CC4)c(OC)cc23)c(Cl)cc1Cl [Bosutinib]
# Outline: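 Hoechst staining, done together with fixation and permeabilisation, marked nuclei for 4× imaging and MetaXpress counting. This followed 5 days without medium change after lung cancer cell lines, kept overnight at 37 °C in 1536-well plates, were pinned with five library-drug doses (not always all listed) spaced by √10 on vehicle-anchored plates. Viability is the ratio of treated-well to vehicle-well nuclei, expressed as a median across plates. Plates passed only at control CV below 25% with at least one doubling.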
# [2] = compound: COc1cc(Nc2c(C#N)cnc3cc(OCCCN4CCN(C)CC4)c(OC)cc23)c(Cl)cc1Cl [Bosutinib] + Nc1ncn([C@H]2C[C@H](O)[C@@H](CO)O2)c(=O)n1 [Decitabine] (partner 2 µM)
# Outline: (§1)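 Relative viability equals treated-well nuclei counts divided by vehicle-well nuclei counts. Counts came from 4× images of lung cancer cell lines grown in 1536-well plates for 5 days after pin-tool dosing on the day after seeding. Dosing used one drug alone or a fixed anchor-drug dose plus five library-drug doses (not always all listed) in √10 steps, and values are medians of duplicate plates.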
# [3] = compound: COc1cc(Nc2c(C#N)cnc3cc(OCCCN4CCN(C)CC4)c(OC)cc23)c(Cl)cc1Cl [Bosutinib] + COc1cccc2cc(-c3nc([C@H]4CC[C@H](C(=O)O)CC4)n4ncnc(N)c34)[nH]c12 [OSI-027] (partner 0.5 µM)
# Outline: as §1
# [4] = compound: COc1cc(Nc2c(C#N)cnc3cc(OCCCN4CCN(C)CC4)c(OC)cc23)c(Cl)cc1Cl [Bosutinib] + CS(=O)(=O)N1CCN(Cc2cc3nc(-c4cccc5[nH]ncc45)nc(N4CCOCC4)c3s2)CC1 [Pictilisib] (partner 1 µM)
# Outline: as §1
# [5] = compound: COc1cc(Nc2c(C#N)cnc3cc(OCCCN4CCN(C)CC4)c(OC)cc23)c(Cl)cc1Cl [Bosutinib] + CC1(C)CCC(c2ccc(Cl)cc2)=C(CN2CCN(c3ccc(C(=O)NS(=O)(=O)c4ccc(N[C@H](CCN5CCOCC5)CSc5ccccc5)c(S(=O)(=O)C(F)(F)F)c4)cc3)CC2)C1 [Navitoclax] (partner 0.5 µM)
# Outline: as §1
Cell Line,relative viability ([1]; 0.01 µM),relative viability ([1]; 0.03162 µM),relative viability ([1]; 0.1 µM),relative viability ([1]; 1 µM),relative viability ([2]; first compound 0.01 µM),relative viability ([2]; first compound 0.03162 µM),relative viability ([2]; first compound 0.1 µM),relative viability ([2]; first compound 1 µM),relative viability ([3]; first compound 0.01 µM),relative viability ([3]; first compound 0.03162 µM),relative viability ([3]; first compound 0.1 µM),relative viability ([3]; first compound 1 µM),relative viability ([4]; first compound 0.01 µM),relative viability ([4]; first compound 0.03162 µM),relative viability ([4]; first compound 0.1 µM),relative viability ([4]; first compound 1 µM),relative viability ([5]; first compound 0.01 µM),relative viability ([5]; first compound 0.03162 µM),relative viability ([5]; first compound 0.1 µM),relative viability ([5]; first compound 1 µM)
LK-2,0.942,0.972,0.929,0.867,0.278,0.363,0.313,0.359,0.256,0.253,0.192,0.185,0.645,0.603,0.577,0.378,0.955,0.943,0.838,0.74
LOU-NH91,0.941,0.999,0.971,0.779,0.818,0.834,0.765,0.653,0.742,0.707,0.728,0.51,0.492,0.524,0.504,0.468,0.755,0.713,0.666,0.391
LU99A,0.958,1.02,1.04,0.606,0.871,0.945,0.961,0.861,0.313,0.332,0.32,0.343,0.324,0.321,0.375,0.345,0.769,0.878,0.782,1.06
LXF-289,1,1.01,1.03,1.01,0.338,0.368,0.427,0.449,0.765,0.849,0.823,0.898,0.815,0.865,0.818,0.778,0.938,0.945,0.911,0.966
NCI-H23,1.13,0.997,1.04,0.872,0.35,0.305,0.321,0.287,0.583,0.605,0.601,0.533,0.523,0.503,0.531,0.481,0.904,0.742,0.869,0.764
NCI-H322M,0.889,0.985,0.98,0.576,0.635,0.735,0.616,0.493,0.531,0.566,0.549,0.422,0.469,0.495,0.525,0.485,1.12,1.25,1.28,1.2
NCI-H441,1.1,1.1,1.31,1.03,0.24,0.264,0.279,0.287,0.622,0.71,0.719,0.628,0.669,0.483,0.634,0.459,0.589,0.599,0.411,0.518
NCI-H460,1.02,0.976,0.967,0.875,0.5,0.475,0.539,0.419,0.803,0.631,0.7,0.603,0.38,0.353,0.321,0.299,1.09,1.11,1.02,0.683
NCI-H520,1.02,1.11,0.953,0.775,0.465,0.47,0.533,0.409,0.293,0.257,0.235,0.196,0.309,0.279,0.288,0.281,1.33,0.988,1.05,0.964
NCI-H596,1.11,1.03,0.984,0.863,1.03,1.07,1.05,0.876,0.743,0.738,0.639,0.496,0.398,0.369,0.405,0.392,1.06,0.86,1.18,0.785
NCI-H647,1.07,0.933,0.928,0.627,0.442,0.36,0.302,0.386,0.661,0.741,0.724,0.496,0.508,0.436,0.432,0.372,1.25,1.23,1.09,0.82
NCI-H727,0.911,0.929,0.985,0.632,0.848,1.03,0.909,0.764,0.605,0.817,0.564,0.529,0.447,0.435,0.297,0.282,0.429,0.519,0.437,0.291
NCI-H838,0.975,0.942,0.953,0.693,0.467,0.507,0.422,0.411,0.43,0.45,0.361,0.317,0.468,0.429,0.414,0.319,1.14,1.14,1.07,0.637
NCI-H1355,0.999,1.03,1.05,0.931,0.304,0.366,0.352,0.368,0.412,0.466,0.465,0.381,0.465,0.545,0.572,0.412,0.996,0.925,0.96,0.814
NCI-H1395,0.932,0.914,1.01,0.817,0.687,0.756,0.688,0.735,0.679,0.662,0.771,0.629,0.597,0.758,0.818,0.719,1.45,1.01,1.34,1.12
NCI-H1437,1.03,0.974,1.02,0.912,0.536,0.567,0.572,0.482,0.887,0.878,0.938,0.886,0.465,0.395,0.54,0.483,1.13,1.11,1.01,0.918
NCI-H1650,1.01,0.846,0.778,0.783,0.457,0.378,0.378,0.511,0.734,0.6,0.444,0.41,0.587,0.516,0.524,0.49,1.46,1.06,1.18,0.754
NCI-H1651,0.997,0.966,1.03,0.988,0.511,0.711,0.688,0.625,0.678,0.793,0.709,0.657,0.579,0.62,0.62,0.687,1,1.17,0.88,0.961
NCI-H1666,0.988,1.04,0.924,1.02,0.63,0.868,0.72,0.802,0.773,0.811,0.821,1.03,0.469,0.32,0.417,0.405,1,1.01,0.889,0.892
NCI-H1734,1.06,1.01,0.965,0.892,0.511,0.55,0.483,0.458,0.584,0.609,0.684,0.538,0.507,0.427,0.447,0.447,0.808,0.827,0.853,0.737
NCI-H1755,1.01,1.09,1.03,0.951,0.639,0.678,0.713,0.804,0.786,0.853,0.803,0.663,0.45,0.497,0.509,0.287,0.971,1.02,1.04,0.925
NCI-H1792,0.822,1.08,0.993,0.84,0.611,0.561,0.623,0.417,0.692,0.706,0.751,0.688,0.299,0.27,0.367,0.332,0.68,0.682,0.67,0.619
NCI-H1793,0.916,0.84,0.791,0.588,0.505,0.505,0.436,0.436,0.254,0.276,0.262,0.23,0.394,0.321,0.383,0.292,0.466,0.479,0.456,0.263
NCI-H1915,0.989,1.09,1.1,1.01,0.265,0.261,0.242,0.267,0.646,0.671,0.71,0.669,1.04,0.988,1.02,0.968,0.802,0.824,0.823,0.81
NCI-H1944,0.965,0.92,0.913,0.888,0.477,0.49,0.472,0.393,0.436,0.412,0.379,0.374,0.35,0.327,0.333,0.345,1.06,1.08,1.04,0.956
NCI-H1975,0.992,0.958,0.966,0.81,0.45,0.369,0.398,0.371,0.735,0.761,0.697,0.534,0.283,0.318,0.338,0.253,1,1.06,1.1,0.991
NCI-H1993,0.977,0.9,0.987,0.936,0.599,0.655,0.655,0.568,0.54,0.541,0.539,0.469,0.827,0.896,0.967,0.741,0.871,0.968,0.957,0.742
NCI-H2009,1.07,1.05,1.06,0.865,0.365,0.468,0.345,0.36,0.681,0.799,0.746,0.522,0.997,0.866,0.927,0.557,1.22,1.2,1.21,1.08
NCI-H2023,1.02,0.943,0.948,0.852,0.233,0.248,0.216,0.25,0.477,0.429,0.377,0.362,0.25,0.235,0.272,0.233,1,1.01,1.03,0.92
NCI-H2085,0.969,0.938,0.919,0.928,0.553,0.564,0.543,0.606,0.741,0.781,0.726,0.462,0.441,0.45,0.425,0.489,1.14,1.13,1.11,1.2
